The subject of one experiment is Ikaros. As to the kind of experiment: Ikaros protein degradation in Jurkat cells. It is filed as cell-based. The protocol:
Jurkat cells were transfected with wildtype full length Aiolos and different lysine mutated full length Aiolos DNA (Origene, 5 μg DNA/100 μL R buffer/2×10^6 cells/shot) using Neon Transfection System (Invitrogen, Grand Island, N.Y.) with program 1350 voltage+10 width+3 pulse. GFP control DNA (Lonza) was also transfected. Transfected cells were cultured in 24-well plate with 1 mL RPMI+10% FBS at 37° C. for 6 hrs and then treated with DMSO or drug for another 48 hrs, Drug treated cells were collected for measuring Aiolos and Ikaros protein expression by western blot with antibodies against Aiolos (Santa Cruz, Dallas, Tex.) and Ikaros (Millipore, Billerica, Mass.).

In experiment [1] the test system is Aiolos. The experiment can be described thus: Endogenous Aiolos in breast cancer cells, western blot. It is filed as cell-based. The method, then: Cell lines (AU565, ZR 75-1, BT-474, EFM-192A, HCC1954, HCC70, MB436 and BT549) were maintained using standard cell culture techniques. For endogenous Aiolos expression, cells were seeded in a 6 well plate at 0.5×10^6 cells per well in a 3 mL volume of media. Cells were allowed to adhere to the plate overnight. Cells were exposed to 0, 1, and 10 μM Compound A for the specified amounts of time.
Cells were harvested and lysed in Pierce #89900 Ripa buffer containing 2× protease inhibitor cocktail from Pierce #78442. The lysate was applied to a QiaShredder to remove DNA. Total protein yield was measured using BioRad DC protein determination kit (Cat#500-0112). Lysates were stored at −80° C. until use. Samples were applied to BioRad Criterion PreCast gels, 10% (Bio-Rad#345-0010) and transferred to Bio-Rad Nitrocellulose/Filter Paper Sandwiches (#162-0233) for western blot analysis.
In general terms: Immunoblotting shows a protein as a band on a membrane.

Experiment [2] has as its system Aiolos. As to the kind of experiment: SimpleWestern of normal human CD19+ B cells, Aiolos. In kind it is cell-based. The settings on record: various concentrations. The protocol:
Human B cells were isolated from 3 donors of whole bloods from the New Jersey Blood Center using B cell isolation kits from StemCell Technologies. IKZF family proteins were quantified using the automated capillary-based SimpleWestern System Sally (ProteinSimple). 100 ng of cell lysate protein or serial dilutions of recombinant proteins were mixed in reducing buffer with fluorescent Molecular Weight (MW) standards. After these samples were heated to 95° C. for 5 min, samples were loaded into each capillary tubes and proteins were separated based on MW sizes through stacking and separation matrices for 40 minutes at 250 Volts. Proteins were then immobilized to capillary walls using optimal photoactivated capture chemistry. Following protein immobilization, capillaries were incubated with a blocking reagent for 23 min and target proteins were probed with a specific primary antibody and horseradish peroxidase-conjugated anti-rabbit secondary antibody (ProteinSimple). A mixture of luminol and peroxide (ProteinSimple) was added, the resulting chemiluminescent signal was captured by a CCD camera, and the signal intensities were quantified and analyzed using Compass Software for Sally (ProteinSimple). The Ikaros family proteins in each sample were then calculated based on standard curve of human recombinant proteins. B-Actin was also used as an internal normalization control.

In the next experiment the test system is Aiolos/IKZF3. As to the kind of experiment: Cyno Monkey dose regimen study, Aiolos Western blotting of PBMC. It is filed as in vivo, Cynomolgus (M. fascicularis). The settings on record: for Aiolos 42 kD / Aiolos 58 kD: in several monkeys. The source says: As depicted in FIG. 4, the study in Cynomolgus monkeys was divided in two phases: Phase I (7 days of oral doing with test article, Compound B hydrochloride) followed by 28 day test article free period and finally Phase II (28 days of oral dosing with test article). The objective of the Phase I of this study was to determine the onset and duration of pharmacodynamic effect of Compound B. The objective of the Phase II of this study was to explore the relationship the pharmacodynamic effects and safety/tolerability of Compound B. In addition, the toxicokinetic characteristics of Compound B were determined. Doses of Compound B tested were 0.75 mg/kg QD, every other day, or 4 days on, 3 days off. The test and control articles were administered to the appropriate animals by gavage from Days 1 to 7 for Phase I and from Days 1 to 28 in Phase II following dose regimens as described above. Phase I and Phase II were separated by at least a 28 day dose free session. The dose volume for each animal was based on the most recent body weight measurement. A naso/orogastric tube was inserted through a nostril (nasogastric) or through the mouth (orogastric) and advanced into the lower esophagus to the stomach. The animals were temporarily restrained (e.g., manually) for dose administration, and were not sedated. Disposable sterile syringes and naso/orogastric tubes were used for each animal/dose. Each dose were followed by a tap water flush of approximately 5 mL. The dosing formulations were stirred continuously during dose administration. Peripheral blood mononuclear cell subsets analyzed by flow cytometry were: CD45^+/CD3^+/CD20^+/CD16^+, CD45^+/CD20^+, CD45^+/CD3^+, CD45^+/CD3^+/CD4^+, CD45^+/CD3^+/CD8^+, CD45^+/CD3^−/CD16^+, CD45^+/CD3^−/CD14^+. Anti-KLH antibody titers were assayed by ELISA (FIG. 5). The protein levels of Aiolos/IKZF3 were measured in the peripheral blood mononuclear cells as follows. Cynomolgus (M. fascicularis) blood yielded approximately 10 million (10×10^6) mononuclear cells (PBMC) per 2.5 ml whole blood (according to protocol by Non Human Primate Reagent Source, Boston). After the cyno PBMC isolation, each sample was divided into two portions: 7×10^6 cells for protein analysis and 3×10^6 cells for mRNA analysis. All steps were done on ice, all centrifugation in a 4° C. refrigerated centrifuge. RIPA lysis buffer (Pierce, cat#89900) was prepared by adding 10 μL proteinase inhibitors (Pierce, cat#78443) to 1 mL of RIPA buffer. The PBMC was washed once in ice-cold phosphate buffered saline (PBS). Lysis buffer (use 0.25 mL RIPA lysis buffer per 7×10^6 PBMC) was added. The tube was placed on ice for 30 minutes, vortexed every 10 min. The lysate was frozen and store at −80° C. until analysis. The lysate was placed into a QIAshredder tube (QIAGEN, cat#79656) and spun down 30 sec at top speed (13200 rpm) in an Eppendorf benchtop centrifuge (Model 5415 R). […] The supernatant was collected without disturbing cell debris pellet (RIPA reagent enables the extraction of membrane, nuclear and cytoplasmic proteins that will remain in the supernatant). The protein lysate was frozen on dry ice and stored at −80° C. until analysis. The protein concentration was measured using BCA assay. The protein yield was expected to be 0.5-5 μg/μL, or 125-1250 μg total. ≧10 μg protein was loaded per lane for western for IKZF3/Aiolos using antibodies against the human proteins.

The next experiment concerns NF-κB. The experiment can be described thus: BCR-dependent NF-κB activation in DLBCL cells. It is filed as cell-based. As to conditions: via IRF4 inhibition.
The test system of the next experiment is human tumor xenograft. As to the kind of experiment: Human tumor xenograft model (DLBCL). It is filed as in vivo. For orientation: In xenograft studies the graft and the host belong to different species.

The structures appear in SMILES notation.

For `Cc1nc2cccc(N)c2c(=O)n1C1CCC(=O)NC1=O` (centres unmarked) [Compound A, 3-(5-amino-2-methyl-4-oxo-4H-quinazolin-3-yl)-piperidine-2,6-dione], the Ikaros protein degradation entry in the experiment with Ikaros is reported as “Ikaros degradation is Aiolos-independent”. Also, the “Endogenous Aiolos” value with Aiolos [1] (Her2+ cells (AU565, BT-474, EFM-192A and HCC1954)) was “inhibited”; in the experiment with Aiolos [1] (triple negative cells (HCC70, MB436 and BT549)), “not in triple negative cells”. In addition, in the experiment on Aiolos [1] (ZR 75-1 and AU565 cell lines, 24 hours after treatment), the “Levels of endogenous Aiolos (band around 60 kD)” value was “reduced the levels of Aiolos”.

With `O=C1CC[C@H](N2Cc3c(OCc4ccc(CN5CCOCC5)cc4)cccc3C2=O)C(=O)N1` [Compound B, 3-(4-((4-(morpholinomethyl)benzyl)oxy)-1-oxoisoindolin-2-yl)piperidine-2,6-dione], the Aiolos expression entry was “inhibited the expression of Ikaros and Aiolos” in the experiment with Aiolos [2]; “generally inhibits the expression of Aiolos” in the experiment on Aiolos/IKZF3 (Cyno monkeys, all dosing regimens). Besides, the “Aiolos 42 kD” value is “increased Aiolos 42 kD” in the experiment on Aiolos/IKZF3 (Group 2, QD dosing); “increased Aiolos 42 kD” in the experiment with Aiolos/IKZF3 (Group 3, Q2D dosing); “increased Aiolos 42 kD” in the experiment on Aiolos/IKZF3 (Group 4, 4 day/week dosing). Also, the “Aiolos 58 kD” value is “reduced Aiolos 58 kD” with Aiolos/IKZF3 (Group 2, QD dosing); “reduced Aiolos 58 kD” with Aiolos/IKZF3 (Group 3, Q2D dosing); “reduced Aiolos 58 kD” with Aiolos/IKZF3 (Group 4, 4 day/week dosing).

As for `Nc1cccc2c1CN(C1CCC(=O)NC1=O)C2=O` (centres unmarked) [lenalidomide], in the experiment on NF-κB, the “BCR-dependent NF-κB activation” value is recorded as “caused downregulation of B cell receptor (BCR)-dependent NF-κB activation”. Also, the Tumor growth result with human tumor xenograft was “delayed tumor growth”.

The values above are taken from US9857359B2, “Methods for determining drug efficacy using cereblon-associated proteins” (CELGENE CORPORATION, priority 2012, dated 2018).
